According to US7223793B2, “Phenolic acid derivatives and composition for preventing or treating blood lipid level-related diseases comprising the same” (Bionutrigen Co., Ltd., priority 2001, dated 2007):
Marks after values point to notes of the source that are not given here.

Assays:
[1] = system: Sprague-Dawley rats; experiment: Effect on hyperlipemia in rats fed high-cholesterol diet (Experimental Example 6); format: in vivo, rat; details: rats on 1% cholesterol diet, 6 weeks; for Atherogenic index (AI): (total cholesterol − HDL cholesterol)/HDL cholesterol; for HDL-cholesterol / Neutral fat / Total cholesterol: 0.02% lovastatin, 0.039% BN30063, 0.040% BN30064, 0.041% BN30067 in diet; for HDL-cholesterol / Neutral fat / Total cholesterol / HDL-cholesterol/total cholesterol: average
Source text: 50 of 4-week-old male white Sprague-Dawley rats (Bio Genomics Inc., Korea), each weighing about 90 to 110 g, were divided into five groups by a randomized block design. The rats of the five groups were fed with five different high-cholesterol diets, i.e., AIN-76 laboratory animal diets (TEKLAD premier Co., Madison, Wis., U.S.A.) containing 1% cholesterol (Control group), 1% cholesterol plus 0.02% lovastatin (Choongwae Pharma. Corp., Korea), 1% cholesterol plus 0.039% BN30063, 1% cholesterol plus 0.040% BN30064, and 1% cholesterol plus 0.041% BN30067, respectively, as shown in Table VII.
The animals were allowed free access to the specified diets and water for 6 weeks and the ingestion amounts were recorded daily. The rats were weighed every 7 days, and then the record was analyzed.
Blood samples were taken from vena hypogastrica of the rats of the five dietary groups raised for six weeks in Step 1. The blood was allowed to stand for 2 hours and centrifuged at 3,000 rpm for 15 minutes and the supernatant containing serum was separated and stored in a deep freezer before use. The total cholesterol level was measured using a diagnosis kit purchased from Sigma, Cat. No.: C0534, applying the method of Allain et al. (Allain et al., Clin. Chem., 20, 470-475 (1974)). The HDL fraction was separated using a kit purchased from Sigma, Cat. No.: 352-1 applying the heparin-manganese precipitation method (Waenic R. G. and Albers J. J., J Lipid Res., 19, 65-76 (1978)) and the HDL-cholesterol level was measured using a kit purchased from Sigma, Cat. No.: C9908. The neutral fat level was measured using a kit purchased from Sigma, Cat. No.: 336-10) applying the lipase-glycerol phosphate oxidase method (McGowan, M. W. et al., Clin. Chem., 29, 538-542(1983)).

[2] = system: New Zealand White rabbits; experiment: Chemical analysis of blood of cholesterol-fed rabbits (Experimental Example 7, Step 3); details: 8 weeks
Protocol: Healthy male New Zealand White rabbits, each weighing about 2.0 to 2.3 kg, were supplied from Yeonam Horticulture and Animal Husbandry College (Korea) and raised under a breeding environment of temperature 20±2° C., relative humidity 55±10%, and photoperiod 12L/12D. […] The rabbits were fed for 8 weeks while being allowed free access to the diets and water.

[3] = system: ACAT; experiment: ACAT activity in liver microsomes of treated rats (Experimental Example 6, Step 3); format: in vivo, rat; details: liver microsomes of rats fed 6 weeks; for ACAT activity: average; for ACAT activity inhibition: relative to control group
Protocol: 1 g of the liver tissue taken from each sacrificed rat of Step 1 was homogenized in 5 ml of the first homogenization medium {0.1 M KH2PO4(pH 7.4), 0.1 mM EDTA and 10 mM β-mercaptoethanol}. The homogenate was centrifuged at 3,000×g for 15 minutes at 4° C. and the supernatant thus obtained was put into a tube and centrifuged at 15,000×g for 15 minutes at 4° C. to obtain a supernatant. The resulting supernatant was put into a 5 mL ultracentrifuge tube (Beckman) and centrifuged at 100,000×g for 1 hour at 4° C. The supernatant was removed off and pellets thus obtained were suspended in 3 mL of the first homogenization medium and centrifuged at 100,000×g for 1 hour at 4° C. The resulting supernatant was removed off and pellets thus obtained were suspended in 1 ml of the first homogenization medium. The resulting suspension was stored in a deep freezer.
6.67 μl of 1 mg/ml cholesterol solution in acetone was mixed with 6 μl of 10% Triton WR-1339 (Sigma Co.) in acetone. Acetone was removed from the mixture by evaporation under a nitrogen flow. To the resulting mixture, distilled water was added to adjust the concentration of cholesterol to 300 mg/10 ml. 10 μl of the resulting aqueous cholesterol solution was mixed with 10 μl of 1 M KH2PO4 (pH 7.4), 5 μl of 0.6 mM bovine serum albumin (BSA), 10 μl of the microsome solution obtained as above and 55 μl of distilled water (total 90 μl). The mixture was pre-incubated in a water bath at 37° C. for 30 minutes.
10 μl of oleyl-CoA solution […] prepared by mixing radiolabelled oleyl-CoA with oleyl-CoA was added to the pre-incubated mixture and the resulting mixture was incubated in a water bath at 37° C. for 30 minutes. 500 μl of isopropanol:heptane mixture (4:1 (v/v)), 300 μl of heptane and 200 μl of 0.1 M KH2PO4 (pH 7.4) were added to the mixture. The mixture was mixed vigorously using a vortex mixer and then allowed to stand at room temperature for 2 minutes.
200 μl of the resulting supernatant was put in a scintillation bottle and 4 mL of scintillation fluid (Lumac) was added thereto. The mixture was assayed for radioactivity with a scintillation counter. ACAT activity was calculated from the measured radioactivity, which was used to determine the ACAT activity inhibition (%).

[4] = system: New Zealand White rabbits; experiment: Morphological observation of liver tissue of cholesterol-fed rabbits (Experimental Example 7, Step 4)
Protocol: Healthy male New Zealand White rabbits, each weighing about 2.0 to 2.3 kg, were supplied from Yeonam Horticulture and Animal Husbandry College (Korea) and raised under a breeding environment of temperature 20±2° C., relative humidity 55±10%, and photoperiod 12L/12D. The rabbits were divided into 5 groups, which were fed with 5 different diets, i.e., the control group fed with RC4 diet (Oriental Yeast Co., Japan) comprising moisture (7.6%), crude protein (22.8%), crude fat (2.8%), crude ash (8.8%), crude cellulose (14.4%) and soluble nitrogen-free substances (43.7%) plus cholesterol (1%) and four treatment groups further fed with lovastatin or BN30063, BN30064, BN30067 in addition to the feed of the control group. The rabbits were fed for 8 weeks while being allowed free access to the diets and water.
Proportions of cells in the liver acinus containing excessive fat or modified to have irregular arrangement due to a high cholesterol diet were classified into four grades, from 1+ to 4+.

[5] = 1% cholesterol diet, lovastatin 1 mg/kg, BN compounds 0.025%, average ± standard deviation

COC(=O)C(CO)NC(=O)CCc1ccc(O)c(O)c1 (centres unmarked) [BN30063, 2-[3-(3,4-dihydroxyphenyl)propionylamino]-3-hydroxy propionic acid methyl ester]
Atherogenic index (AI) [1]: 1.39
Increase of HDL-cholesterol to total cholesterol as compared to the control group [1]: 78.28%
Reduction of atherogenic index as compared to the control group [1]: 57.75%
Reduction of neutral fat level as compared to the control group [1]: 49.41%
Reduction of total plasma cholesterol level as compared to the control group [1]: 29.8%
HDL-cholesterol [1]: 28.97 mg/dL
Neutral fat [1]: 52.31 mg/dL
Total cholesterol [1]: 68.06 mg/dL
HDL-cholesterol/total cholesterol [1]: 43.25%
HDL [2, 5]: 81 ± 16 mg/dL
TC [2, 5]: 1643 ± 194 mg/dL
ACAT activity [3]: 186.56 pmol/minute/mg protein
ACAT activity inhibition [3]: 0%
Grade of abnormal fat content in the liver acinus ([4]; rabbit, in vivo): 3.71 ± 0.35
Liver tissue morphology ([4]; rabbit, in vivo): not observed any abnormality

CC[C@H](C)C(=O)O[C@H]1C[C@@H](C)C=C2C=C[C@H](C)[C@H](CC[C@@H]3C[C@@H](O)CC(=O)O3)[C@H]21 [Lovastatin, reference compound]
Atherogenic index (AI) [1]: 2.58
Increase of HDL-cholesterol to total cholesterol as compared to the control group [1]: 20%
Reduction of atherogenic index as compared to the control group [1]: 21.58%
Reduction of neutral fat level as compared to the control group [1]: 18.92%
Reduction of total plasma cholesterol level as compared to the control group [1]: 10%
HDL-cholesterol [1]: 24.83 mg/dL
Neutral fat [1]: 83.85 mg/dL
Total cholesterol [1]: 86.51 mg/dL
HDL-cholesterol/total cholesterol [1]: 29.13%
GOT [2, 5]: 105 ± 47^b IU/L
GPT [2, 5]: 47 ± 18 IU/L
HDL [2, 5]: 70 ± 6 mg/dL
TC [2, 5]: 1739 ± 86 mg/dL
GOT and GPT compared among the test groups ([2]; associated with hepatotoxicosis): highest GOT and GPT values among the test groups
ACAT activity [3]: 166.66 pmol/minute/mg protein
ACAT activity inhibition [3]: 10.46%
Grade of abnormal fat content in the liver acinus ([4]; 1+ (0–25%), 2+ (26–50%), 3+ (51–75), 4+ (76–100%), rabbits, 1% cholesterol diet, 8 weeks, average ± standard deviation): 3.83 ± 0.5^b
Liver tissue morphology ([4]; rabbits, 1% cholesterol diet, 8 weeks): a grade higher than that of the control group

O=C(O)CC(NC(=O)CCc1ccc(O)c(O)c1)C(=O)O (centres unmarked) [BN30067, 2-[3-(3,4-dihydroxyphenyl)propionylamino]-succinic acid]
Atherogenic index (AI) [1]: 1.96
Increase of HDL-cholesterol to total cholesterol as compared to the control group [1]: 42.70%
Reduction of atherogenic index as compared to the control group [1]: 40.43%
Reduction of neutral fat level as compared to the control group [1]: 63.87%
Reduction of total plasma cholesterol level as compared to the control group [1]: 27.82%
HDL-cholesterol [1]: 23.81 mg/dL
Neutral fat [1]: 37.37 mg/dL
Total cholesterol [1]: 69.99 mg/dL
HDL-cholesterol/total cholesterol [1]: 34.62%
HDL [2, 5]: 81 ± 14 mg/dL
TC [2, 5]: 1710 ± 251 mg/dL
ACAT activity [3]: 160.01 pmol/minute/mg protein
ACAT activity inhibition [3]: 14.03%
Grade of abnormal fat content in the liver acinus ([4]; rabbit, in vivo): 3.82 ± 0.8
Liver tissue morphology ([4]; rabbit, in vivo): not observed any abnormality

CC(C)CC(NC(=O)CCc1ccc(O)c(O)c1)C(=O)O (centres unmarked) [BN30064, 2-[3-(3,4-dihydroxyphenyl)propionylamino]-4-methyl pentanoic acid]
Atherogenic index (AI) [1]: 1.61
Increase of HDL-cholesterol to total cholesterol as compared to the control group [1]: 68.10%
Reduction of atherogenic index as compared to the control group [1]: 51.06%
Reduction of neutral fat level as compared to the control group [1]: 29.35%
Reduction of total plasma cholesterol level as compared to the control group [1]: 21.92%
HDL-cholesterol [1]: 28.49 mg/dL
Neutral fat [1]: 73.07 mg/dL
Total cholesterol [1]: 75.71 mg/dL
HDL-cholesterol/total cholesterol [1]: 40.78%
HDL [2, 5]: 85 ± 15 mg/dL
TC [2, 5]: 1596 ± 191^b mg/dl
HDL compared to the control group [2]: significantly increased value
Total cholesterol compared to the control group [2]: significantly low
ACAT activity [3]: 152.49 pmol/minute/mg protein
ACAT activity inhibition [3]: 18.07%
Grade of abnormal fat content in the liver acinus ([4]; rabbit, in vivo): 3.70 ± 0.10
Liver tissue morphology ([4]; rabbit, in vivo): not observed any abnormality
